# Test results: US11434227B2, “Broad spectrum antibacterial activity of novel bisbenzimidazoles targeting topoisomerase IA and the synergistic composition of bisbenzimidazole with efflux pump inhibitors against pathogenic bacteria” (Jawaharlal Nehru University (JNU), priority 2016, dated 2022)
# How the values were obtained:
# E. coli ATCC25922 = assay: HN12b in combination with efflux pump inhibitors (CB method, FICI); settings: for FICI / Interpretation: E. coli ATCC25922
# Experimental: (§1) 96-well microtiter plates containing MIC25 concentrations of the Efflux pump inhibitor (CCCP, PAβN) and HN12b antimicrobial drugs alone and in CB combination were used. The MICs of the individual drugs HN12b, PAβN and CCCP (0.25 to 128 μg/ml) and of the combinations were determined using the broth microdilution technique as recommended by the CLSI. Briefly, the broth microdilution plates were inoculated with each test organism to yield the appropriate density (10^5 CFU/ml) in 100 μl Mueller-Hinton broth (MHB) and incubated for 24 h at 37° C. in ambient air. One well with no antibiotic was used as a positive growth control on each plate. Plates were read for visual turbidity, and results were recorded after 24 h of incubation at 37° C. in ambient air by using a magnifying mirror reader, as turbidity in wells indicated growth of the microorganism. The MIC was determined as the well in the microtiter plate with the lowest drug concentration at which there was no visible growth. […] MICAB was defined as the MIC of drug A in the presence of drug B; MICBA was defined as the MIC of drug B in the presence of drug A.
# (§2) The fractional inhibitory concentration index (FICI) was calculated for each antibiotic in each combination by using the following formula: FICA+FICB=FICI, where FICA equals the MIC of drug A in combination divided by the MIC of drug A alone and FICB equals the MIC of drug B in combination divided by the MIC of drug B alone. The FICIs were interpreted as follows: FICI of ≤0.5 will correspond to synergy; FICI of >0.5 to ≤1 will correspond to additivity; FICI of >1 to ≤4 will correspond to no interaction (indifference), and FICI of >4 will correspond antagonism.
# E. coli K12 mutant ΔompC = assay: Susceptibility of E. coli K12 and mutants (MIC90); settings: Escherichia coli
# Experimental: (§3) MICs were determined by the broth microdilution method according to CLSI methods (Clinical and Laboratory Standards Institute, 2005). Inoculants were incubated at 37° C. on cation adjusted Mueller Hinton (MH) Broth for 18 to 24 h. Compound were dissolved in media to 10 doubling dilutions from 128 to 0.125 μg/mL. All the bacterial strains were grown in 96 well plate with low evaporation lid (Falcon, Becton Dickinson) in presence of derivatives of benzimidazoles at 0.125, 0.25, 0.5, 1, 2, 4, 8, 16, 32, 64, 128, 256 μg/mL concentrations. […] Plates were read by Tecan Micro-plate Reader at 600 nm.
# [1] = tested on: Acinetobacter baumannii (AB387); assay: Susceptibility (MIC50/MIC90), broth microdilution
# Experimental: as §3
# E. coli 360^R = assay: Susceptibility (MIC, PAE, MBC), broth microdilution; settings: Escherichia coli
# Experimental: as §3
# E. coli 81^R = assay: as above; settings: Escherichia coli
# Experimental: as §3
# E. coli ATCC 25922 = assay: Mouse systemic infection (septicemia) model; type: in vivo, Balb/c mice
# Experimental: Female Balb/c mice weighing 20-25 g of 6-8 weeks old were injected with E. coli ATCC 25922 (0.5×10^8 CFU in 0.1 mL saline) intraperitoneally. […] Each treatment or control group had 10 mice. Mortality was recorded daily for 7 days post infection.
# [2] = target: E. coli Topoisomerase IA (EcTopoIA) (Escherichia coli, UniProt P06612); assay: Topoisomerase IA relaxation inhibition assay; type: biochemical; settings: compared to DMA
# E. coli Topoisomerase IA (EcTopoIA), sequence (P06612 whole entry): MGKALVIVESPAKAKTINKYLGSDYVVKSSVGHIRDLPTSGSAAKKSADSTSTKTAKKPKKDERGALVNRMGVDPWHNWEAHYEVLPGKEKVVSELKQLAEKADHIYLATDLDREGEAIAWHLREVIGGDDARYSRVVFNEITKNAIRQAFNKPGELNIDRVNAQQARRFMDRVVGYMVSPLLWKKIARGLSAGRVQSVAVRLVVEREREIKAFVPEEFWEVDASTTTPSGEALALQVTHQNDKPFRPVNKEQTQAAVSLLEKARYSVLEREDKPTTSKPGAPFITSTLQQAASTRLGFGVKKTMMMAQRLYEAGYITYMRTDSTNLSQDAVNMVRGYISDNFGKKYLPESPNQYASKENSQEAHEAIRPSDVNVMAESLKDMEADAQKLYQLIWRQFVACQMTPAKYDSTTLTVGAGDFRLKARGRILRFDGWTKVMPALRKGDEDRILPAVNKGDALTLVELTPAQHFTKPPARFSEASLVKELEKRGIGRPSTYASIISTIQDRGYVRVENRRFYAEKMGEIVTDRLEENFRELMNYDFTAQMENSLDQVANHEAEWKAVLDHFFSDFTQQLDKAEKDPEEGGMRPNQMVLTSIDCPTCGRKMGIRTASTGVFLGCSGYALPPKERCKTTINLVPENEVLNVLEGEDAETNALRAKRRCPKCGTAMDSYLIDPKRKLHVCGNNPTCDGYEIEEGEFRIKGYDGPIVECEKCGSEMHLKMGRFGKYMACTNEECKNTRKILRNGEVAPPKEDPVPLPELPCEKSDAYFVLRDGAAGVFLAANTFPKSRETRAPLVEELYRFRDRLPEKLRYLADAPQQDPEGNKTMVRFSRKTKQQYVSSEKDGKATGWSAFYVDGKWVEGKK
# Experimental: E. coli Topoisomerase IA (EcTopoIA) purified protein was diluted in buffer (10 mM Tris-HCl pH 8.0, 50 mM NaCl, 0.1 mg/mL gelatin, 0.5 mM MgCl2). Compounds were added in concentrations 1, 5, 10, 25 and 50 μM to 10 ng of the diluted enzyme present in 20 μL reaction volume. 500 ng of supercoiled pHOT plasmid DNA purified by Qiagen Maxiprep Kit was added. The mixture was incubated at 37° C. for 30 min before termination of the reaction and analysed by agarose gel electrophoresis without Ethidium bromide. The gels were then stained with ethidium bromide which was further photographed over UV transilluminator and analysed by performing densitometry.
# Mechanism of inhibition was determined by performing relaxation assay in three different conditions. First, relaxation assay was done with increasing concentrations of Mg^2+ from 0 to 50 mM to find out optimum concentration of Mg^2+ required by EcTopo 1A. Second, relaxation assay was performed with increasing concentration of Mg^2+ in the presence of 5 μM compound and third, reaction we have increased the concentration of compound from 5 to 100 μM in a buffer with 25 mM of MgCl2.
# Escherichia coli 385 = assay: Susceptibility (MIC50/MIC90), broth microdilution
# Experimental: as §3
# [3] = tested on: Salmonella typhimurium (St412); assay: Susceptibility (MIC50/MIC90), broth microdilution; settings: Salmonella enterica
# Experimental: as §3
# Escherichia coli 392 = assay: Susceptibility (MIC50/MIC90), broth microdilution
# Experimental: as §3
# P. aeruginosa (MTCC1688) = assay: HN12b in combination with efflux pump inhibitors (CB method, FICI)
# Experimental: as §1, §2
# [4] = tested on: Klebsiella planticola (MTCC 2272); assay: Susceptibility (MIC50/MIC90), broth microdilution; settings: MTCC2272
# Experimental: as §3
# [5] = tested on: Staphylococcus sp. (1016); assay: Susceptibility (MIC50/MIC90), broth microdilution; settings: Staphylococcus
# Experimental: as §3
# E. coli 132^R = assay: Susceptibility (MIC, PAE, MBC), broth microdilution; settings: Escherichia coli
# Experimental: as §3
# [6] = tested on: Shigella flexineri (MTCC1457); assay: Susceptibility (MIC50/MIC90), broth microdilution; type: cell-based
# E. coli 401^R = assay: Susceptibility (MIC, PAE, MBC), broth microdilution; settings: Escherichia coli
# Experimental: as §3
# E. coli DH5α = assay: as above; settings: Escherichia coli
# Experimental: as §3
# [7] = tested on: E. coli K12 mutant ΔTopIA; assay: Susceptibility of E. coli K12 and mutants (MIC90); settings: Escherichia coli
# Experimental: as §3
# Enterococcus sp. (1121) = assay: Susceptibility (MIC50/MIC90), broth microdilution
# Experimental: as §3
# E. coli K12 = assay: Susceptibility of E. coli K12 and mutants (MIC90); settings: Escherichia coli
# Experimental: as §3
# Staphylococcus sp. (982) = assay: Susceptibility (MIC50/MIC90), broth microdilution
# Experimental: as §3
# [8] = tested on: Pseudomonas aeruginosa (MTCC1688); assay: Susceptibility (MIC50/MIC90), broth microdilution
# Experimental: as §3
# [9] = tested on: most of the pathogenic bacterial strains; assay: MIC of HN12b in combination with efflux pump inhibitor; settings: combination with CCCP and PAβN
# Experimental: Briefly, the broth microdilution plates were inoculated with each test organism to yield the appropriate density (10^5 CFU/ml) in 100 μl Mueller-Hinton broth (MHB) and incubated for 24 h at 37° C. in ambient air. One well with no antibiotic was used as a positive growth control on each plate. Plates were read for visual turbidity, and results were recorded after 24 h of incubation at 37° C. in ambient air by using a magnifying mirror reader, as turbidity in wells indicated growth of the microorganism. The MIC was determined as the well in the microtiter plate with the lowest drug concentration at which there was no visible growth. […] MICAB was defined as the MIC of drug A in the presence of drug B; MICBA was defined as the MIC of drug B in the presence of drug A.
# [10] = P. aeruginosa (MTCC1688), HN12b + CCCP
structure (smiles),measurement,setting,value
"CCCN1CCN(c2nc3ccc(-c4nc5ccccc5[nH]4)cc3[nH]2)CC1 [HN12b, 2′-(4-propylpiperazine-1-yl)-1H, 3′H-2,5′-bibenzimidazole]",FICI,E. coli ATCC25922; HN12b + CCCP,0.3
same,Interpretation,E. coli ATCC25922; HN12b + CCCP,Synergy (FICI of ≤0.5 will correspond to synergy)
same,FICI,E. coli ATCC25922; HN12b + PAβN,0.1
same,Interpretation,E. coli ATCC25922; HN12b + PAβN,Synergy (FICI of ≤0.5 will correspond to synergy)
same,MIC90,"E. coli ATCC25922; Escherichia coli, ATCC25922",14 mg/L
same,MIC90,E. coli K12 mutant ΔompC,3.8 mg/L
same,MIC50,[1],3.25 mg/L
same,MIC90,[1],8 mg/L
same,MBC,E. coli 360^R,2 mg/L
same,MIC50,E. coli 360^R,1 mg/L
same,MIC90,E. coli 360^R,1.6 mg/L
same,MBC,E. coli 81^R,2 mg/L
same,MIC50,E. coli 81^R,1 mg/L
same,MIC90,E. coli 81^R,1.6 mg/L
same,ED50,"E. coli ATCC 25922; Escherichia coli, iv, 168 h, Septicemia, ATCC25922, single i.v. bolus, survival over 7 days",5 mg/kg
same,in vivo efficacy,"E. coli ATCC 25922; Septicaemia model, E. coli ATCC 25922",good in vivo efficacy
same,Topoisomerase Inhibition activity,[2],improved Topoisomerase Inhibition activity as compared to DMA
same,MIC50,Escherichia coli 385,1.5 mg/L
same,MIC90,Escherichia coli 385,3.3 mg/L
same,MIC50,[3],< 0.25 mg/L
same,MIC90,[3],< 0.25 mg/L
same,MIC50,Escherichia coli 392,17.9 mg/L
same,MIC90,Escherichia coli 392,64.5 mg/L
same,FICI,P. aeruginosa (MTCC1688); [10],0.6
same,Interpretation,P. aeruginosa (MTCC1688); [10],Synergy (FICI of ≤0.5 will correspond to synergy)
same,FICI,"P. aeruginosa (MTCC1688); P. aeruginosa (MTCC1688), HN12b + PAβN",1
same,MIC90,"P. aeruginosa (MTCC1688); Pseudomonas aeruginosa, MTCC1688",> 128 mg/L
same,MIC50,[4],30 mg/L
same,MIC90,[4],128 mg/L
same,MIC50,[5],0.57 mg/L
same,MIC90,[5],4.57 mg/L
same,MBC,E. coli 132^R,4 mg/L
same,MIC50,E. coli 132^R,2 mg/L
same,MIC90,E. coli 132^R,3.5 mg/L
same,MIC50,[6],1.22 mg/L
same,MIC90,[6],1.22 mg/L
same,MBC,E. coli 401^R,2 mg/L
same,MIC50,E. coli 401^R,1 mg/L
same,MIC90,E. coli 401^R,1.7 mg/L
same,MBC,E. coli DH5α,0.8 mg/L
same,MIC50,E. coli DH5α,0.2 mg/L
same,MIC90,E. coli DH5α,0.2 mg/L
same,MIC90,[7],2.8 mg/L
same,MIC50,Enterococcus sp. (1121),< 0.25 mg/L
same,MIC90,Enterococcus sp. (1121),8 mg/L
same,MIC90,E. coli K12,8 mg/L
same,MIC50,Staphylococcus sp. (982),0.44 mg/L
same,MIC90,Staphylococcus sp. (982),7.44 mg/L
same,MIC50,[8],> 128 mg/L
same,MIC90,[8],128 mg/L
same,reduction in MIC in combination with efflux pump inhibitor,[9],four to eight fold reduction in MIC
